Test results from EP0592600B1, “PROTEINS S POLYPEPTIDES AND USES THEREOF” (THE SCRIPPS RESEARCH INSTITUTE, priority 1991, dated 1993).
Bridge positions count the residues as written; N and C are the ends. Ends that are not written are not given here. Peptide text beside a SMILES is read from it.

Key:
[1] = target: T1, C4BP (Homo sapiens, UniProt P04003+P20851); conditions: in vitro; cited from earlier work
T1 sequence (P04003 49-597): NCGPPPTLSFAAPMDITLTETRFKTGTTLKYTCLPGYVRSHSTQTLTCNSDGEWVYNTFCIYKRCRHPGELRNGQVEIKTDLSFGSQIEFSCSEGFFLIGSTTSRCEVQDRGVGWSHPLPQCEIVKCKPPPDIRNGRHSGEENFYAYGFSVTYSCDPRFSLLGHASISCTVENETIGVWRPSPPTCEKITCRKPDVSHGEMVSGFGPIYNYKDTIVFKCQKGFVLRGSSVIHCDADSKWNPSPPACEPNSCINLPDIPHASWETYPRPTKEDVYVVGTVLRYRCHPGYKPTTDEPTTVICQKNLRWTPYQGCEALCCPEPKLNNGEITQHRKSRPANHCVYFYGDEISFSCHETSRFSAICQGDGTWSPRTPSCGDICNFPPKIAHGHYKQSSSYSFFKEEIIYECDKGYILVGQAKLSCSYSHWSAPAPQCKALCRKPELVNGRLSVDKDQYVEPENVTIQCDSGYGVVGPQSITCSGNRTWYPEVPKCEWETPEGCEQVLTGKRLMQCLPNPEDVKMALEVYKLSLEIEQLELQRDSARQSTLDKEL
T1 sequence (P20851 18-252): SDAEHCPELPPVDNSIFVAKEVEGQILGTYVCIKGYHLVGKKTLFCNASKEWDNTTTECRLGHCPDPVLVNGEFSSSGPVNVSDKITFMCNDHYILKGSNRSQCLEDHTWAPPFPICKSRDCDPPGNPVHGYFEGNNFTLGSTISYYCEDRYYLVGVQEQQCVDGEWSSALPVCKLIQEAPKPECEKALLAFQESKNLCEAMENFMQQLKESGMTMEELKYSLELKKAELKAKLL

[2] = target: T2, PS:C4BP complex (Homo sapiens, UniProt P04003+P20851); assay: Peptide inhibition of binding of b-C4BP to PS-coated wells
T2 construct: Purified human C4BP was obtained from 5 liters (1) of human citrated plasma; from tissue; host or cells: human citrated plasma (C4BP); protein S per Schwarz et al
T2 sequence (P04003 49-597): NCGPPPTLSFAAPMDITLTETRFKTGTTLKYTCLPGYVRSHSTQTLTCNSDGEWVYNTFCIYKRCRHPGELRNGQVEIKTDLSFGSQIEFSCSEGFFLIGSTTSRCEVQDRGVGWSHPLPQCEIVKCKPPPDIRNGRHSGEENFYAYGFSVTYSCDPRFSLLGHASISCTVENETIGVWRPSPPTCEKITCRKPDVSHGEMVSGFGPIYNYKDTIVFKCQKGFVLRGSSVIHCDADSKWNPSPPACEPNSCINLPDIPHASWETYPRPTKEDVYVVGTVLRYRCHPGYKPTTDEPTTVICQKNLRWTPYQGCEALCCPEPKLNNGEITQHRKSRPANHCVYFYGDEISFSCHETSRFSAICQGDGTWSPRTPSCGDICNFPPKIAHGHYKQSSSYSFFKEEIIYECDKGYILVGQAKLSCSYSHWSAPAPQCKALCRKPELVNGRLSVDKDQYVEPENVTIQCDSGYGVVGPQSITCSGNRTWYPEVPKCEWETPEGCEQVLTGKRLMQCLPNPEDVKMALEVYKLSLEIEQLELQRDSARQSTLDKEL
T2 sequence (P20851 18-252): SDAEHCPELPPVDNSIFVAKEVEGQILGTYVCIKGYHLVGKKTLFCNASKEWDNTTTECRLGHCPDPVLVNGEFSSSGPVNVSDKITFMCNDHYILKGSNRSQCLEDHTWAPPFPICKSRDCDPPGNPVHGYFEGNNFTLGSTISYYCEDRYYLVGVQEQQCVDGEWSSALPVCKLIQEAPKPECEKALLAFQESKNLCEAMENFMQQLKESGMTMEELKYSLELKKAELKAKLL
Description: An alternative approach was used to test the ability of the peptides, PSP-loop and PSP-428K, in comparison with that seen with the PSP-12 peptide, in inhibiting the binding of C4BP to PS. For this assay, the microtiter wells were coated with purified PS diluted to a concentration of 10 µg/ml in carbonate-coating buffer as described above. The wells were maintained to allow the PS to bind to the well walls. After the maintenance period, the wells were blocked also as described above. The selected PSP peptides were separately admixed at various concentrations ranging from 0 - 500 µM with biotinylated-C4BP (b-C4BP) at a concentration of 1 µg/ml. The admixtures were maintained on a fluid phase plate for 2 hours at room temperature to form peptide-C4BP complexes.
Fifty µl of the complexed admixtures were separately admixed to the prepared C4BP-coated wells and maintained for 1 hour at room temperature. Thereafter, the plate was washed and processed for developing as described above.

[3] = target: T2, PS:C4BP complex; assay: Fluid-phase peptide inhibition of b-PS binding to C4BP, detected on anti-C4BP polyclonal antibody-coated plates
Description: (§1) An alternative approach was used to test the ability of the peptides, PSP-loop, PSP-424K and PSP-428K, in comparison with that seen with the PSP-12 peptide, in inhibiting the binding of PS to C4BP, the result of which was detected on polyclonal antibody-coated plates. For this assay, C4BP, biotinylated-PS (b-PS) and PSP peptides were admixed together at the respective concentrations of 3 µg/ml, 0.6 µg/ml and at a range of 0 - 500 µM (V:V:V). The admixtures were maintained for 2 hours at room temperature on a fluid phase plate to allow the binding and/or inhibition thereof of PS to C4BP by the PS-derived peptides. After the maintenance period, 50 µl of the admixture were separately admixed to wells previously coated with 10 µg/ml of anti-C4BP IgG polyclonal antibody. The admixtures were maintained for 1 hour at room temperature to allow for the binding of C4BP to C4BP-antibody-coated plates. The binding of biotinylated complexes to the antibody-coated plates was detected as described in Example 5Aii.

[4] = target: T2, PS:C4BP complex; assay: Fluid-phase peptide inhibition of PS binding to b-C4BP, detected on MAb S-7-coated plates
Description: as §1, with “monoclonal” for “polyclonal”, “biotinylated-C4BP (b-C4BP), PS” for “C4BP, biotinylated-PS (b-PS)”, “0.5” for “3”, “1.0” for “0.6”, “MAb S-7 (ATCC No. HB 80819).” for “anti-C4BP IgG polyclonal antibody.”, “MAb S-7-antibody-coated” for “C4BP-antibody-coated”

[5] = target: T2, PS:C4BP complex; assay: Peptide Inhibition Assay: binding of b-PS to C4BP in solid phase; conditions: subsequent experiments
Description: Each of the peptides produced as described in Example 1 and listed in Table 1 was analyzed for its ability to inhibit the binding of native protein S in liquid-phase to C4BP in solid-phase.
Microtiter wells of a 96 well plate were coated with 50 µl of 10 µg/ml purified C4BP in carbonate buffer (0.02 M Na2CO3, pH 9.0, 0.02% Na-Azide). After blocking with 10% BSA in TBS, 50 µl of different concentrations of peptides diluted in washing buffer (TBS, 0.2% BSA, 5mM CaCl, 0.02% Tween 20) were separately admixed to C4BP-coated wells. After 2 hours at room temperature, 50 µl of a solution of biotinylated protein S, were admixed to each well to form a second binding admixture having a final concentration of 2 µg/ml. The plate was agitated and the samples were incubated 1 hour at room temperature. The samples were discarded and the wells were washed 3 times with washing buffer. To each well, 50 µl of strepavidin-alkaline-phosphatase (1 µg/ml washing buffer) were admixed and allowed to incubate for 30 minutes at room temperature. The strepavidin-alkaline-phosphatase was then discarded and the wells were washed 6 times with washing buffer. The resulting optical densities of the reaction solutions were read as described before in Example 2C.
Results of the assay are reported as percent inhibition of C4BP binding. Percent of inhibition of C4BP binding is defined as: I = 100% - 100 x (deltaT /deltaC ) [formula] • where I is expressed as a percent; and • where 100% = delta/min of the amount of b-PS which specifically bound to C4BP-coated wells in the absence of any competing PS-peptide; and • where deltaT = the change in absorbance (405 nm) in the presence of competing PS-peptide; and • where deltaC = the change in absorbance (405 nm) in the absence of competing PS-peptide.

[6] = target: T3, C4b binding protein (human, UniProt P04003 49-597; P20851 18-252); assay: Fluid-phase competition of C4BP, b-PS and peptide; capture on anti-C4BP polyclonal IgG
T3 construct: mature; The beta chain is added from general knowledge; Biotinylated (b-C4BP) in some assays; also called C4BP; purified human C4BP
T3 sequence (looked up) 1: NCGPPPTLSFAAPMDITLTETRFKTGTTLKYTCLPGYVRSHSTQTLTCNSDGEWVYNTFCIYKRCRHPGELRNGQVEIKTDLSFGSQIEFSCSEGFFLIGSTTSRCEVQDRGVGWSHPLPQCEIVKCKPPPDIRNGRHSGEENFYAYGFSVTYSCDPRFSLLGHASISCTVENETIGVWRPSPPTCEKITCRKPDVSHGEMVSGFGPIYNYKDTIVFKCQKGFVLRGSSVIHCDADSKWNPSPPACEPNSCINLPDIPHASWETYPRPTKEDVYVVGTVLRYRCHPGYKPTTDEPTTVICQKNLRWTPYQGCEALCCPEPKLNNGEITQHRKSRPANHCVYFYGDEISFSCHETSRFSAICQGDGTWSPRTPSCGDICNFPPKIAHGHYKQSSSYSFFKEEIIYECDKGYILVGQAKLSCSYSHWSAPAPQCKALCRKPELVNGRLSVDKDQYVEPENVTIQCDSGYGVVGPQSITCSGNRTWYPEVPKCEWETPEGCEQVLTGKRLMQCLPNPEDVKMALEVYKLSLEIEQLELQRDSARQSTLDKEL
T3 sequence (looked up) 2: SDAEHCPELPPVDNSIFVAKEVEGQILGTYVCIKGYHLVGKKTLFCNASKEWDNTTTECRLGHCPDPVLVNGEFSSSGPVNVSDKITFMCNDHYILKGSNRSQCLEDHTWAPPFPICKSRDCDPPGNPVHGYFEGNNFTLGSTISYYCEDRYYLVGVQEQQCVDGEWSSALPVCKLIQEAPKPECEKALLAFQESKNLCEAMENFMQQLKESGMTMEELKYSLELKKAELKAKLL

[7] = target: T3, C4b binding protein; assay: Competition ELISA, peptide preincubated with b-C4BP, PS-coated wells
[8] = target: T3, C4b binding protein; assay: Fluid-phase competition of b-C4BP, PS and peptide; capture on MAb S-7

GVQLDLDEAI [synthetic peptide derived from the carboxy terminal region of protein S (residues 605 to 614 of mature PS)]
effect on the interaction of protein S with C4BP [1]: inhibits the interaction of protein S with C4BP in vitro

CC[C@H](C)[C@@H]1NC(=O)[C@H](CO)NC(=O)[C@H](C)NC(=O)CNC(=O)[C@H](CCC(N)=O)NC(=O)[C@H](CCCCN)NC(=O)[C@H](CCSC)NC(=O)[C@H](CC(C)C)NC(=O)[C@H](CC(N)=O)NC(=O)[C@H](Cc2c[nH]c3ccccc23)NC(=O)[C@H](CO)NC(=O)[C@H](CCCNC(=N)N)NC(=O)[C@H]([C@@H](C)CC)NC(=O)[C@@H](N)CSSC[C@@H](C(N)=O)NC(=O)[C@H](Cc2c[nH]cn2)NC(=O)[C@H](CCCCN)NC(=O)[C@H](CC(N)=O)NC(=O)[C@H](CCC(N)=O)NC(=O)[C@H](CCCCN)NC(=O)[C@H](CCC(=O)O)NC(=O)[C@H](CCC(N)=O)NC(=O)[C@H]([C@@H](C)CC)NC(=O)[C@H]([C@@H](C)CC)NC(=O)[C@H](CCC(=O)O)NC(=O)[C@H](CCCCN)NC1=O [PSP-loop] (H-CIRSWNLMKQGASIKEIIQEKQNKHC-NH2; disulfide 1-26; N-terminus assumed)
IC90 [2]: 50 µM | IC90 [3]: ~400 µM | IC90 [4]: ~100 µM | peptide concentration that completely inhibits the binding of PS to C4BP [5]: approximately 250 µM

CC[C@H](C)[C@H](NC(=O)CNC(=O)[C@@H](N)CO)C(=O)N[C@@H](CCCCN)C(=O)N[C@@H](CCCCN)C(=O)N[C@H](C(=O)N[C@H](C(=O)N[C@@H](CCC(N)=O)C(=O)N[C@@H](CCC(=O)O)C(=O)N[C@@H](CCCCN)C(=O)N[C@@H](CCC(N)=O)C(=O)N[C@@H](CC(N)=O)C(=O)N[C@@H](CCCCN)C(=O)N[C@@H](CS)C(N)=O)[C@@H](C)CC)[C@@H](C)CC [PSP-424K] (H-SGIKKIIQEKQNKC-NH2)
IC90 ([2]; b-C4BP 1 µg/ml, PS-coated wells, peptide 0 - 500 µM, read-out: IC90): ~250 µM | IC50 ([2]; b-C4BP 1 µg/ml, PS-coated wells, peptide 0 - 500 µM, read-out: half-maximal inhibitory concentration (IC50)): ~50 µM | inhibition of the binding of b-PS to C4BP ([3]; compared with PSP-loop): also inhibitory but with lower effectiveness | IC50 ([4]; b-C4BP 0.5 µg/ml, PS 1.0 µg/ml, peptide 0 - 500 µM): ~50 µM | IC90 ([4]; b-C4BP 0.5 µg/ml, PS 1.0 µg/ml, peptide 0 - 500 µM, read-out: IC90): ~250 µM

CIRSWNLMKQGASIKEIIQEKQNKHC-NH2 (cysteine pairing not given here, also called loop peptide) [PSP-loop]
IC50 [6]: ~40 µM | IC50 [7]: ~15 µM | IC90 [7]: 50 µM | IC50 [8]: ~35 µM
